“And” between values parts separate entries of the source, which are not always exact repeats. Equal values may be shown once. Toxic doses and inconclusive results are not listed. Non-standard residues stand in square brackets, D forms with d. Residues, ends and D or L forms follow the SMILES beside them. ξ: configuration not given here. ξPhe(4-N(CH2CH2Cl)2) = NC(Cc1ccc(N(CCCl)CCCl)cc1)C(=O)O
Test system: BDF1 mice, P388 leukemia ip, median survival T/C
Assay: NCI In Vivo Anticancer Drug Screen. Data for tumor model P388 Leukemia (intraperitoneal) in B6D2F1 (BDF1) mice
Settings: endpoint: median survival time, higher = longer survival
How it was run: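 Survival ratio, drug arm over vehicle arm, in mice with a transplanted tumour.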

[1] = dose: 100.0 mg/kg/injection, schedule: Q04DX003 (ip), vehicle: saline with Tween-80
[2] = dose: 200.0 mg/kg/injection, schedule: Q04DX003 (ip), vehicle: saline with Tween-80

CCOC(=O)C(Cc1ccc(N(CCCl)CCCl)cc1)NC(=O)C(CCC(=O)O)NC(=O)C(CO)NC(=O)C(CCC(=O)O)NC(=O)C(N)CO (stereo unspecified) (H-SESE[ξPhe(4-N(CH2CH2Cl)2)]-OEt; configuration not given here)
T/C (dose: 5.0 mg/kg/injection, schedule: Q04DX003 (ip), vehicle: water): 97 % of control
T/C (dose: 10.0 mg/kg/injection, schedule: Q04DX003 (ip), vehicle: water): 99 % of control
T/C (dose: 20.0 mg/kg/injection, schedule: Q04DX003 (ip), vehicle: water): 100 % of control
T/C (dose: 40.0 mg/kg/injection, schedule: Q04DX003 (ip), vehicle: water): 100 % of control

CCOC(=O)CN(CC)C(=O)NC12CC3CC(CC(C3)C1)C2
T/C (dose: 100.0 mg/kg/injection, schedule: Q01DX009 (ip), vehicle: Klucel (hydroxypropylcellulose) (HPC)): 100 % of control
T/C (dose: 200.0 mg/kg/injection, schedule: Q01DX009 (ip), vehicle: Klucel (hydroxypropylcellulose) (HPC)): 103 % of control
T/C (dose: 400.0 mg/kg/injection, schedule: Q01DX009 (ip), vehicle: Klucel (hydroxypropylcellulose) (HPC)): 102 % of control

CC(C)(CC(=O)O)CC(=O)OCC(=O)[C@@]1(O)CC[C@H]2[C@@H]3CCC4=CC(=O)C=C[C@]4(C)[C@H]3[C@@H](O)C[C@@]21C
T/C (dose: 100.0 mg/kg/injection, schedule: Q01DX009 (ip), vehicle: steriod suspending solution): 100 % of control
T/C (dose: 100.0 mg/kg/injection, schedule: Q01DX009 (sc), vehicle: steriod suspending solution): 120 % of control
T/C (dose: 100.0 mg/kg/injection, schedule: Q04DX003 (sc), vehicle: steriod suspending solution): 108 % of control
T/C (dose: 200.0 mg/kg/injection, schedule: Q01DX009 (ip), vehicle: steriod suspending solution): 90 % of control
T/C (dose: 200.0 mg/kg/injection, schedule: Q01DX009 (sc), vehicle: steriod suspending solution): 120 % of control and 122 % of control
T/C (dose: 200.0 mg/kg/injection, schedule: Q04DX003 (sc), vehicle: steriod suspending solution): 100 % of control
T/C (dose: 400.0 mg/kg/injection, schedule: Q01DX009 (ip), vehicle: steriod suspending solution): 90 % of control
T/C (dose: 400.0 mg/kg/injection, schedule: Q01DX009 (sc), vehicle: steriod suspending solution): 110 % of control
T/C (dose: 400.0 mg/kg/injection, schedule: Q04DX003 (sc), vehicle: steriod suspending solution): 104 % of control

COc1cccc2c1C(=O)c1c(O)c3c(c(O)c1C2=O)C[C@@](O)(/C(C)=N/NC(=O)c1ccc(Cl)c(Cl)c1)C[C@@H]3OC1CC(N)C(O)C(C)O1 (stereo partly specified)
T/C (dose: 0.5 mg/kg/injection, schedule: Q01DX009 (ip), vehicle: water): 202 % of control
T/C (dose: 1.0 mg/kg/injection, schedule: Q01DX009 (ip), vehicle: water): 234 % of control and 156 % of control
T/C (dose: 2.0 mg/kg/injection, schedule: Q01DX009 (ip), vehicle: water): 295 % of control and 186 % of control
T/C (dose: 4.0 mg/kg/injection, schedule: Q01DX009 (ip), vehicle: water): 295 % of control and 186 % of control

N#CCC(=O)N1Cc2cc3ccccc3nc2C1
T/C (dose: 50.0 mg/kg/injection, schedule: Q01DX001 (ip), vehicle: saline sonified): 100 % of control
T/C (dose: 100.0 mg/kg/injection, schedule: Q01DX001 (ip), vehicle: saline sonified): 100 % of control
T/C (dose: 200.0 mg/kg/injection, schedule: Q01DX001 (ip), vehicle: saline sonified): 100 % of control

CCCNC(=O)Nc1cccc(Cl)c1C
T/C [1]: 104 % of control
T/C [2]: 100 % of control
T/C (dose: 400.0 mg/kg/injection, schedule: Q04DX003 (ip), vehicle: saline with Tween-80): 100 % of control

c1cc[c]([Sn]([c]2ccccc2)([c]2ccccc2)[n]2cnc3ccccc32)cc1
T/C (dose: 0.1 mg/kg/injection, schedule: Q01DX009 (ip), vehicle: Klucel (hydroxypropylcellulose) (HPC)): 90 % of control
T/C (dose: 0.21 mg/kg/injection, schedule: Q01DX009 (ip), vehicle: Klucel (hydroxypropylcellulose) (HPC)): 90 % of control
T/C (dose: 0.43 mg/kg/injection, schedule: Q01DX009 (ip), vehicle: Klucel (hydroxypropylcellulose) (HPC)): 90 % of control
T/C (dose: 0.87 mg/kg/injection, schedule: Q01DX009 (ip), vehicle: Klucel (hydroxypropylcellulose) (HPC)): 90 % of control
T/C (dose: 7.0 mg/kg/injection, schedule: Q01DX009 (ip), vehicle: Klucel (hydroxypropylcellulose) (HPC)): 115 % of control
T/C (dose: 18.0 mg/kg/injection, schedule: Q04DX003 (ip), vehicle: Klucel (hydroxypropylcellulose) (HPC)): 100 % of control
T/C (dose: 28.0 mg/kg/injection, schedule: Q04DX003 (ip), vehicle: Klucel (hydroxypropylcellulose) (HPC)): 86 % of control

CCNNC(=O)[C@@H]1[C@H](c2cc(OC)c(OC)c(OC)c2)c2cc3c(cc2[C@H](O)[C@H]1CO)OCO3
T/C (dose: 12.5 mg/kg/injection, schedule: Q01DX009 (ip), vehicle: saline): 109 % of control
T/C (dose: 25.0 mg/kg/injection, schedule: Q01DX009 (ip), vehicle: saline): 100 % of control
T/C (dose: 50.0 mg/kg/injection, schedule: Q01DX009 (ip), vehicle: saline with Tween-80): 116 % of control
T/C (dose: 50.0 mg/kg/injection, schedule: Q01DX009 (ip), vehicle: saline): 122 % of control
T/C (dose: 100.0 mg/kg/injection, schedule: Q01DX009 (ip), vehicle: saline with Tween-80): 90 % of control
T/C [1]: 108 % of control
T/C (dose: 200.0 mg/kg/injection, schedule: Q01DX009 (ip), vehicle: saline with Tween-80): 90 % of control
T/C [2]: 104 % of control
